Literature values as cited in patent publication US20120043242A1, “Medicinal cannabis fatty foodstuff” (priority 2010, published 2012).
Like-named read-outs stand apart in the source and are kept apart here.

Key:
[1] = system: healthy individuals; details: healthy individuals / humans
[2] = system: people who use cannabis; details: compared with the no cannabinoid and the TCH+CBD groups

SMILES | anxiety and psychotic symptoms [1] | decarboxylation of concentrated THCA-A in solution into Δ^9-THC (120 degrees C.) | decarboxylation of concentrated THCA-A in solution into Δ^9-THC (140 degrees C.) | decarboxylation of concentrated THCA-A in solution into Δ^9-THC (160 degrees C.) | degradation of Δ^9-THC into cannabinol and dihydrocannabinol (160 degrees C.) | degradation of Δ^9-THC into cannabinol and dihydrocannabinol (180 degrees C.) | positive schizophrenia-like symptoms [2]
C=C(C)[C@@H]1CCC(C)=C[C@H]1c1c(O)cc(CCCCC)cc1O [CBD, cannabidiol] | anxiolytic and to have antipsychotic properties | – | – | – | – | – | –
CCCCCc1cc2c(c(O)c1C(=O)O)[C@@H]1C=C(C)CC[C@H]1C(C)(C)O2 [THCA-A, tetrahydrocannabinol carboxylic acid] | – | Partial decarboxylation | Significant decarboxylation | Nearly complete decarboxylation | – | – | –
CCCCCc1cc(O)c2c(c1)OC(C)(C)[C@@H]1CCC(C)=C[C@@H]21 [Δ^9-THC, Tetrahydrocannabinol] | elevate levels of anxiety and psychotic symptoms | – | – | – | some degradation | A significant percentage | higher levels
